This assay concerns human red blood cells (HRBCs). The following applies: read-out: Hemolysis toxicity (IC50); 1 h incubation. As to the method:
To investigate the toxicity for normal human cells, all peptides were first screened against human red blood cells (HRBCs) using a hemolysis assay (Table 2 and Figure S4).
Hemolysis toxicity was tested against HRBCs. Blood samples, collected from the university hospital, were centrifuged twice at 700 × g and once at 1000 × g for 8 min at 4 °C to obtain erythrocyte pellets. Supernatants were always discarded, and pellets were resuspended in PBS (the same as the antimicrobial susceptibility assay). The final RBC suspension was 0.5% (v/v). Dilution series was prepared for concentrations 50 to 0.1 μM in a V-bottom 96-well plate, followed by the addition of RBC suspension. […] After 1 h of incubation at 37 °C, the well plate was centrifuged at 1000 × g for 10 min at 4 °C. The supernatant, collected in a flat-bottom well plate, was measured for OD415 using Tecan Microplate Reader Infinite F500.

By IC50 is commonly meant the midpoint of a concentration-inhibition curve.

Consider “H-HHHHLKKILKKLFQFINQLDNQLQDIHHHH-OH [LP40]”, for which the IC50 was over 50 µM.

Source of the values: publication PMC11345766, “Computational Design of Pore-Forming Peptides with Potent Antimicrobial and Anticancer Activities” (Journal of Medicinal Chemistry, 2024).
